# Columns and labels:
# wild type mice = assay: Regional cerebral blood flow (rCBF) by laser-Doppler flowimetry after L-arginine infusion, wild type and simvastatin-treated mice; type: in vivo
# Description: (§1) The number of mice in each group is indicated in parenthesis.
# [1] = system: mutant mice deficient in endothelial nitric oxide synthase (eNOS null); assay: Regional cerebral blood flow (rCBF) by laser-Doppler flowimetry after L-arginine infusion, eNOS null mice; type: in vivo; conditions: L-arginine 450 mg/kg i.v.
# Description: as §1
# [2] = Uptake of tritium labeled Dizocilpine in MCA territory after MCA occlusion (Example 6, autoradiography); type: in vivo, mice; conditions: L-arginine 400 mg/kg infusion over 10 min acutely or Simvastatin SC 3 weeks, Example 6 written in present tense
# Method: 4 groups of mice receive the following treatments by SQ administration for 3 weeks, followed on day 22 by a surgery where an MCA occlusion is induced by an insertion of a modified 8-0 suture. […] Thereafter the mice are sacrificed at 15 and 30 minutes, and the brain tissue is frozen and sectioned and then analyzed by autoradiographic methods to quantitate the amount of radiolabeled compound present within the MCA territory on the side of occlusion.
# 1) 2 groups of saline SC injection over 3 weeks
# a) 1 group after surgery received radio labeled Dizocilpine
# 2) 2 groups of Simvastain SC injection over 3 weeks
# [3] = mouse, in vivo
# [4] = L-arginine infusion in simvastatin-treated mice
# [5] = wild type mice, L-arginine 450 mg/kg i.v.
Compound,"elevations in regional cerebral blood flow (RCBF) (wild type mice; L-arginine 300 mg/kg i.v., preliminary experiments n=4, modest and variable)",additional time for which rCBF increases sustained (wild type mice; [4]),time of maximum rCBF increase (wild type mice; [4]),"maximum rCBF increase over simvastatin baseline (wild type mice; L-arginine infusion in simvastatin-treated mice, at 15-20 min)","increase in blood flow in the 30-40 minute epoch, simvastatin treated compared to non treated control (wild type mice; L-arginine infusion, P<0.05)",time at which increase in RCBF began (wild type mice; [5]),time of maximum rCBF values (wild type mice; [5]),"time at which RCBF increase achieved statistical significance (wild type mice; wild type mice, L-arginine 450 mg/kg i.v., after infusion)","maximum rCBF increase above baseline (wild type mice; wild type mice, L-arginine 450 mg/kg i.v., parietal cortex, at 20-25 min)",rCBF change during the 40 minute recording period [1],rCBF response (in words) [1],uptake of Dizocilpine within the underperfused brain [2],blood pH after infusion (in words) [3],increase of baseline rCBF (wild type mice; after chronic daily administration of simvastatin alone)
N=C(N)NCCC[C@H](N)C(=O)O [L-arginine],10%,20 min,15 to 20 min,29-31%,larger,5 to 10 min,20 to 25 min,10 to 15 min,26%,−4 to +5%,did not increase rCBF,higher uptake,lower,–
CCC(C)(C)C(=O)O[C@H]1C[C@@H](C)C=C2C=C[C@H](C)[C@H](CC[C@@H]3C[C@@H](O)CC(=O)O3)[C@H]21 [simvastatin],–,–,–,–,–,–,–,–,–,–,–,–,–,25%
